ChEMBL document CHEMBL3745599, “The anti-tumor activity and mechanism of alkaloids from Aconitum szechenyianum Gay” (Bioorg Med Chem Lett, 2016)
Calls of active or inactive are those of the source. No cut-off for these calls is given here.

Tests used:
HepG2 = experiment: Antiproliferative activity against human HepG2 cells assessed as cell viability at 100 to 1600 ug/ml after 44 hrs by MTT assay; assay type: functional, cell-based
A549 [1] = experiment: Antiproliferative activity against human A549 cells assessed as cell viability at 100 to 1600 ug/ml after 44 hrs by MTT assay; assay type: functional, cell-based
HeLa = experiment: Antiproliferative activity against human HeLa cells assessed as cell viability at 100 to 1600 ug/ml after 44 hrs by MTT assay; assay type: functional, cell-based
[2] = Cytotoxicity against HEK293A cells assessed as cell viability at 100 to 800 ug/ml after 44 hrs by MTT assay; assay type: cell-based; conditions: human, hek293-a
[3] = Cytotoxicity against HEK293A cells assessed as cell viability at 1600 ug/ml after 44 hrs by MTT assay; assay type: cell-based; conditions: human, hek293-a
A549 [4] = experiment: Induction of apoptosis in human A549 cells assessed as change from fusiform shape to round shape cell at 100 to 800 ug/ml after 24 hrs by inverted phase contrast microscopic analysis; assay type: functional, cell-based
A549 [5] = experiment: Induction of apoptosis in human A549 cells assessed as cell shrinkage at 100 to 800 ug/ml after 24 hrs by inverted phase contrast microscopic analysis; assay type: functional, cell-based
A549 [6] = experiment: Induction of apoptosis in human A549 cells assessed as appearance of loosely arranged cells at 100 to 800 ug/ml after 24 hrs by inverted phase contrast microscopic analysis; assay type: functional, cell-based
A549 [7] = experiment: Induction of apoptosis in human A549 cells assessed as change in cytoplasmic vacuole at 100 to 800 ug/ml after 24 hrs by inverted phase contrast microscopic analysis; assay type: functional, cell-based
A549 [8] = experiment: Induction of apoptosis in human A549 cells assessed as condensed chromatin at 100 to 800 ug/ml after 24 hrs by Hoechst 33258 staining-based fluorescence microscopic analysis; assay type: functional, cell-based
A549 [9] = experiment: Induction of apoptosis in human A549 cells assessed as nuclear fragmentation at 100 to 800 ug/ml after 24 hrs by Hoechst 33258 staining-based fluorescence microscopic analysis; assay type: functional, cell-based
A549 [10] = experiment: Induction of apoptosis in human A549 cells after 24 hrs by inverted phase contrast microscopic analysis; assay type: functional, cell-based
A549 [11] = experiment: Upregulation of phosphorylated p38 expression in human A549 cells by Western blot analysis; assay type: functional, cell-based
A549 [12] = experiment: Upregulation of p38 expression in human A549 cells by Western blot analysis; assay type: functional, cell-based
[13] = molecular target: T1, MAP kinase p38 (Homo sapiens) (UniProt O15264+Q15759+Q16539+P53778); experiment: Activation of p38 in human A549 cells assessed as upregulation of DR5 expression by Western blot analysis; assay type: cell-based
[14] = molecular target: T1, MAP kinase p38 (Homo sapiens); experiment: Activation of p38 in human A549 cells assessed as upregulation of TNF-R1 expression by Western blot analysis; assay type: cell-based
A549 [15] = experiment: Induction of apoptosis in human A549 cells assessed as loss in mitochondrial membrane potential after 24 hrs by JC-1 dye-based fluorescence microscopic analysis; assay type: functional, cell-based
[16] = molecular target: T1, MAP kinase p38 (Homo sapiens); experiment: Activation of p38 in human A549 cells assessed as upregulation of Bax expression by Western blot analysis; assay type: cell-based
[17] = molecular target: T1, MAP kinase p38 (Homo sapiens); experiment: Activation of p38 in human A549 cells assessed as downregulation of Bcl2 expression at 100 to 800 ug/ml by Western blot analysis; assay type: cell-based
[18] = molecular target: T1, MAP kinase p38 (Homo sapiens); experiment: Activation of p38 in human A549 cells assessed as increase in Bax to Bcl2 ratio by Western blot analysis; assay type: cell-based
[19] = molecular target: T1, MAP kinase p38 (Homo sapiens); experiment: Activation of p38 in human A549 cells assessed as downregulation of cytochrome c expression in mitochondria by Western blot analysis
[20] = molecular target: T1, MAP kinase p38 (Homo sapiens); experiment: Activation of p38 in human A549 cells assessed as upregulation of cytochrome c expression in cytosol by Western blot analysis; assay type: cell-based
[21] = molecular target: T1, MAP kinase p38 (Homo sapiens); experiment: Activation of p38 in human A549 cells assessed as downregulation of procaspase-8 level by Western blot analysis; assay type: cell-based
[22] = molecular target: T1, MAP kinase p38 (Homo sapiens); experiment: Activation of p38 in human A549 cells assessed as downregulation of procaspase-3 level by Western blot analysis; assay type: cell-based
[23] = molecular target: T1, MAP kinase p38 (Homo sapiens); experiment: Activation of p38 in human A549 cells assessed as upregulation of cleaved caspase-9 level by Western blot analysis; assay type: cell-based

SMILES	Activity (HepG2)	Activity (A549 [1])	Activity (HeLa)	Activity [2]	Activity [3]	Activity (A549 [4])	Activity (A549 [5])	Activity (A549 [6])	Activity (A549 [7])	Activity (A549 [8])	Activity (A549 [9])	Activity (A549 [10])	Activity (A549 [11])	Activity (A549 [12])	Activity [13]	Activity [14]	Activity (A549 [15])	Activity [16]	Activity [17]	Activity [18]	other results
CCN1C[C@]2(COC)CC[C@H](OC)[C@]34C1[C@H]([C@H](OC)[C@H]23)[C@]1(OC(C)=O)[C@H]2[C@@H](OC(=O)c3ccccc3)[C@](O)(C[C@H]24)[C@@H](OC)[C@@H]1O	Active	Active	Active	Non-toxic	Toxic	Active	Active	Active	Active	Active	Active	Dose-dependent effect	Dose-dependent effect	Dose-dependent effect	Dose-dependent effect	Dose-dependent effect	Dose-dependent effect	Dose-dependent effect	Active	Dose-dependent effect	Activity [19]: Dose-dependent effect; Activity [20]: Dose-dependent effect; Activity [21]: Dose-dependent effect; Activity [22]: Dose-dependent effect; Activity [23]: Active
CCN1C[C@]2(COC)[C@H](O)C[C@@H](OC)[C@@]34[C@@H]5C[C@@]6(O)[C@H](OC(=O)c7ccccc7)[C@@H]5[C@@](OC(C)=O)([C@@H]([C@H](OC)[C@H]23)[C@H]14)[C@@H](O)[C@@H]6OC	Active	Active	Active	Non-toxic	Toxic	Active	Active	Active	Active	Active	Active	Dose-dependent effect	Dose-dependent effect	Dose-dependent effect	Dose-dependent effect	Dose-dependent effect	Dose-dependent effect	Dose-dependent effect	Active	Dose-dependent effect	Activity [19]: Dose-dependent effect; Activity [20]: Dose-dependent effect; Activity [21]: Dose-dependent effect; Activity [22]: Dose-dependent effect; Activity [23]: Active
CCN1C[C@@]2(COC)[C@H]3[C@@H](OC)[C@H]4C1[C@]3([C@@H](OC)C[C@H]2OC(C)=O)[C@@H]1C[C@@]2(O)[C@H](OC(=O)c3ccccc3)[C@@H]1[C@]4(OC(C)=O)[C@@H](O)[C@@H]2OC	Active	Active	Active	Non-toxic	Toxic	Active	Active	Active	Active	Active	Active	Dose-dependent effect	Dose-dependent effect	Dose-dependent effect	Dose-dependent effect	Dose-dependent effect	Dose-dependent effect	Dose-dependent effect	Active	Dose-dependent effect	Activity [19]: Dose-dependent effect; Activity [20]: Dose-dependent effect; Activity [21]: Dose-dependent effect; Activity [22]: Dose-dependent effect; Activity [23]: Active
C=C1[C@H]2C[C@@]3([C@@H]1O)[C@@H](CC2=O)[C@@]12C4[C@@H]3C[C@@H]1[C@@](C)(CC[C@@H]2O)CN4CC	Active	Active	Active	Non-toxic	Toxic	Active	Active	Active	Active	Active	Active	Dose-dependent effect	Dose-dependent effect	Dose-dependent effect	Dose-dependent effect	Dose-dependent effect	Dose-dependent effect	Dose-dependent effect	Active	Dose-dependent effect	Activity [19]: Dose-dependent effect; Activity [20]: Dose-dependent effect; Activity [21]: Dose-dependent effect; Activity [22]: Dose-dependent effect; Activity [23]: Active
